From patent publication US6767887B1, “Exendin analogues, processes for their preparation and medicaments containing them” (Roche Diagnostics GmbH, priority 1999, dated 2004)
Where a SMILES comes first, the peptide text is derived from it. Where no end group is shown, it is not given here. [ ]: non-standard residue; d: D form. Nle = CCCC[C@H](N)C(=O)O

Key:
[1] = system: clonal B cell line INS-1; assay: Increase of cytosolic calcium concentration in INS-1 cells (Fura-2); assay type: cell-based; conditions: peptide 10^−8 M, 10 mM glucose
Experimental: Measurement of the Increase of the Cytosolic Calcium Concentration in B Cells of the Endocrine Pancreas (Clonal B Cell Line INS-1)
INS-1 cells are cultured in RPMI 1640 medium containing 10% FCS, 10 mM HEPES buffer (pH 7.4), 2 mM L-glutamine, 100 i.U. penicillin/ml, 100 μg streptomycine/ml, 1 mM pyruvate (sodium salt) and 50 μM 2-mercaptoethanol at 37° C. in an atmosphere of 95% air and 5% CO2. After 6 to 8 days growth on plastic cell culture plates, the subconfluent cells, after rinsing once with PBS (phosphate-buffered saline), are detached from the base by incubating for four minutes at 37° C. with 0.025% trypsin and 0.27 mM EDTA in isoosmotic saline solution
The detached cells are resuspended in Spinner medium (culture medium as above, but containing 5% FCS and 25 mM HEPES) and incubated for two and a half hours in a Spinner bottle with a stirrer bar. Afterwards the medium is removed by centrifugation and the cells are resuspended in Spinner medium. They are then incubated for 30 minutes at 37° C. with 2 μM Fura-2/acetoxymethyl ester under the same conditions as before. The Fura loading of the cells is terminated by washing the cells once Spinner medium (room temperature). Afterwards the cells are resuspended in spinner medium at room temperature (2×10^7 cells/ml). The cells are then removed from this suspension for calcium measurements.
The measurements are carried out at 37° C. in a modified Krebs-Ringer buffer (KRBH) containing 136 mM NaCl, 4.8 mM KCl, 2 mM CaCl2, 1.2 MM MgSO4, 1.2 mM KH2PO4, 5 mM NaNCO3, 10 mM glucose, 250 μM sulfinpyrazone (to inhibit the Fura-2 efflux into the medium) and 25 mM HEPES buffer (adjusted to pH 7.4 with NaOH). The cell concentration is 1-2×10^6/ml. The measurements are carried out in a cuvette stirred with a stirring bar in a spectrofluorimeter at 37° C. with 1.5 ml cell suspension. The excitation wavelength is 340 nm, the emission wavelength is 505 nm. At the end of the measurement 50 μM MnCl2 is added which is followed by 100 μm DTPA (diethylenetriamine pentaacetate) in order to determine the proportion of extracellular fluorescence indicator relative to the measured fluorescence by temporarily quenching the fluorescence of extracellular Fura. After the addition of DTPA the entire Fura is firstly converted into a calcium-saturated and then into a calcium-free state to determine the calibration values Fmax (calcium-saturated) and Fmin (calcium-free) for the respective measurement. For this purpose the cells are lysed by adding 0.1% Triton X-100. The dye is saturated with calcium by contact with the high extracellular calcium concentration. […]
The cytosolic calcium ion concentration is calculated according to the algorithm introduced by R. Tsien and colleagues (Grynkiewicz, G., 1985): […]

[2] = target: dipeptidyl peptidase IV (DDP-IV) (Homo sapiens, UniProt P27487)
dipeptidyl peptidase IV (DDP-IV), sequence (P27487 whole entry): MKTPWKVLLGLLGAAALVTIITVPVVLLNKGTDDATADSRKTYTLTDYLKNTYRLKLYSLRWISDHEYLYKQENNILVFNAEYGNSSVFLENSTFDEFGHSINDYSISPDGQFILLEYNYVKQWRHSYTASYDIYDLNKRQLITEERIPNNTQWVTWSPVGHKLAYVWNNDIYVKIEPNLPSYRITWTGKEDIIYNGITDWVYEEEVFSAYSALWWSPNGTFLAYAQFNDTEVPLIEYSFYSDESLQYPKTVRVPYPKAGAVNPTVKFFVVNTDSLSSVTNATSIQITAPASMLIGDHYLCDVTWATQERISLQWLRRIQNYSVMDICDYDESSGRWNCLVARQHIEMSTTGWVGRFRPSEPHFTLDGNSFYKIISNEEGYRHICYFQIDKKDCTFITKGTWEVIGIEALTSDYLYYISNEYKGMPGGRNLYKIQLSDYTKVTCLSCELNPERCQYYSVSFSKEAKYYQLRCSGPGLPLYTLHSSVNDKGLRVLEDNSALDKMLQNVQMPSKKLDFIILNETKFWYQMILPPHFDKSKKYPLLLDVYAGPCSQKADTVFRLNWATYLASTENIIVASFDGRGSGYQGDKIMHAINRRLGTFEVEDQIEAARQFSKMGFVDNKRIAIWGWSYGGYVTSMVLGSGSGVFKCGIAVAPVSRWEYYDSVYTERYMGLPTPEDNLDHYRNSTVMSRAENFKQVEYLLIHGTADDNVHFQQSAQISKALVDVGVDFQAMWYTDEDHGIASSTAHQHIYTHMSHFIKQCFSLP
Experimental: Renal brush border microvilli membranes (BBM) are therefore a suitable source for the relevant ectopeptidases and can be used as an in vitro test for the metabolic stability of synthetic peptides. Alternatively it is possible to use ectopeptidase preparations.
(§1) Microvilli membranes (0.5-1 μg protein) or the respective ectopeptidase preparation (60-300 ng) were incubated with 10 μg peptide (about 3 nmol) in 100 μl HEPES buffer (50 mM, pH 7.4) which contained 50 mM NaCl. The reactions were terminated at predetermined times (duration up to 1 hour) by boiling. Subsequently the samples were centrifuged (10,000×g), diluted with 150 μl 0.1% TFA and analysed by means of reversed phase (RP) HPLC. Each sample was determined in duplicate.
A system with the following components was used for HPLC analysis: A 2248 low pressure pump (Pharmacia-LKB, Freiburg), a WISP 10B autoinjector (Millipore-Waters, Eschborn), a UV detector SP-4 (Gynkotec, Berlin), a low pressure mixing system (Pharmacia-LKB, Freiburg) and a program manager software control (Pharmacia-LKB, Freiburg). […] After injection of 244 μl of the sample solution onto a column equilibrated with the motile solvent A, the incubation products were eluted with a linear gradient of 0% to 80% B in 80 min and detected at 215 nm UV absorption. […]

[3] = system: brush border microvilli membranes (BBM); conditions: pH 7.4
Experimental: Renal brush border microvilli membranes (BBM) are therefore a suitable source for the relevant ectopeptidases and can be used as an in vitro test for the metabolic stability of synthetic peptides.
Microvilli membranes of the rat and pig kidney cortex are isolated by means of subcellular fractionation using the differential centrifugation method (Booth and Kenny (1975)). 4 Brush border ectopeptidases are examined fluorimetrically and other marker enzymes are measured colorimetrically in order to assess the degree of purity and the yield of membranes.
as §1
A system with the following components was used for HPLC analysis: A 2248 low pressure pump (Pharmacia-LKB, Freiburg), a WISP 10B autoinjector (Millipore-Waters, Eschborn), a UV detector SP-4 (Gynkotec, Berlin), a low pressure mixing system (Pharmacia-LKB, Freiburg) and a program manager software control (Pharmacia-LKB, Freiburg). […]

[4] = system: isolated islet cells; assay: Insulin release from isolated islets; assay type: cell-based, mice
Experimental: The abdomen of anaesthetised (0.3-0.5 ml nembutal/isotonic saline solution 1:4 i.p.) mice is opened by a median incision and two side incisions, the peritoneum is immobilized and cut open at the costal arch along the diaphragm. All organs are inflated and stained red by injection of a neutral red solution into the left ventricle. The pancreas is carefully removed along the stomach and duodenum up to the mesenteries. Until digestion the pancreas is placed in an ice-cooled petri dish in Hank's balanced salt solution (HBBS) and a few drops of neutral red.
Two pancreases are dabbed with cellulose, placed in a tube, 5 ml freshly prepared collagenase solution (collagenase (Cl. histolyticum) 0.74 U/mg, Serva, 2 mg/ml in HBBS/water 1:9, pH 7.4) is added and they are incubated for 18 minutes at 37° C. while shaking. Subsequently a centrifugation is carried out at 1000 rpm for 1 minute. The supernatant is discarded, In a second digestion step 5 ml collagenase solution (1 mg/ml) is incubated for 4 minutes, shaken and undigested tissue is sedimented. The supernatant is decanted and the whole process is repeated four to five times. The supernatant is then centrifuged for 1 minute at 1000 rpm and the collagenase solution is discarded. The remaining pellet is shaken with ice-cold HBBS and sedimented for ca. 10 minutes on ice. This wash process is repeated for a further three times. The faint pink stained islets are picked out from the washed pellets under a stereoscopic magnifying glass and transferred to culture medium (100 ml RPMI 1640 (Gibco), 1 ml glutamine, 1 ml penicillin, 1 ml Cibrobay antibiotic (Bayer), 10 ml foetal calf serum, 2 ml Hepes buffer 1 M). In order to obtain the purest possible culture, the islets are picked two to three times and transferred to fresh culture medium.
The islet cells from the culture medium are distributed in Eppendorff vessels containing […] stimulation buffer (118 mM NaCl, 0.2 mM NaH^2PO^4, 0.565 mM MgCl^2, 1.25 mM CaCl^2, 4.1 mM KCl, 10 mM Hepes, 1% BSA, 3.3 mM glucose; pH 7.4) in a quantity of 10 islets per Eppendorff vessel and placed in an incubator for 1 hour at 37° C. Subsequently the peptides to be tested are added and filled up to […] with stimulation buffer and incubated for one hour at 37° C. The islets are centrifuged at 1000 rpm for 1 minute. The amount of […] is measured in the supernatant using an insulin-RIA (DPC Biermann, Nauheim). Each test substance was determined in quadruplicate.
Some exendin analogues were tested as described above on isolated islet cells for insulin secretory activity.
Insulin Release From Isolated Islets After 1 Hour [mIU/h/10 Islets] in the Presence of 10 mM Glucose: […]

**Q.** With “10 (HGEGTFTSDLSKQMEEEAVRAFIEWLKAGR) [compound 10]” as the compound, how does the “Δ[Ca^2+]cyt ± SD (n = 4)” value [1] read?
**A.** 69 ± 30 nM

**Q.** `CCCC[C@H](NC(=O)[C@H](CCC(N)=O)NC(=O)[C@H](CCCCN)NC(=O)[C@H](CO)NC(=O)[C@H](CC(C)C)NC(=O)[C@H](CC(=O)O)NC(=O)[C@H](CO)NC(=O)[C@@H](NC(=O)[C@H](Cc1ccccc1)NC(=O)[C@@H](NC(=O)CNC(=O)[C@H](CC(=O)O)NC(=O)[C@H](C)NC(=O)[C@@H](N)Cc1c[nH]cn1)[C@@H](C)O)[C@@H](C)O)C(=O)N[C@@H](CCC(=O)O)C(=O)N[C@@H](CCC(=O)O)C(=O)N[C@@H](CCC(=O)O)C(=O)N[C@@H](C)C(=O)N[C@H](C(=O)N[C@@H](CCCNC(=N)N)C(=O)N[C@@H](CC(C)C)C(=O)N[C@@H](Cc1ccccc1)C(=O)N[C@H](C(=O)N[C@@H](CCC(=O)O)C(=O)N[C@@H](Cc1c[nH]c2ccccc12)C(=O)N[C@@H](CC(C)C)C(=O)N[C@@H](CCCCN)C(=O)N[C@@H](CC(N)=O)C(=O)NCC(=O)N[C@@H](CCCNC(=N)N)C(N)=O)[C@@H](C)CC)C(C)C` [compound 78] (H-HADGTFTSDLSKQ[Nle]EEEAVRLFIEWLKNGR-NH2) was tested. Which “Substrate for DDP-IV” value [2] did it give?
**A.** no proteolysis

**Q.** Which Degradation rate [3] does the source give for `CCCC[C@H](NC(=O)[C@H](CCC(N)=O)NC(=O)[C@H](CCCCN)NC(=O)[C@H](CO)NC(=O)[C@H](CC(C)C)NC(=O)[C@H](CC(=O)O)NC(=O)[C@H](CO)NC(=O)[C@@H](NC(=O)[C@H](Cc1ccccc1)NC(=O)[C@@H](NC(=O)CNC(=O)[C@H](CC(=O)O)NC(=O)[C@H](CCCCN)NC(=O)[C@@H](N)Cc1c[nH]cn1)[C@@H](C)O)[C@@H](C)O)C(=O)N[C@@H](CCC(=O)O)C(=O)N[C@@H](CCC(=O)O)C(=O)N[C@@H](CCC(=O)O)C(=O)N[C@@H](C)C(=O)N[C@H](C(=O)N[C@@H](CCCNC(=N)N)C(=O)N[C@@H](CC(C)C)C(=O)N[C@@H](Cc1ccccc1)C(=O)N[C@H](C(=O)N[C@@H](CCC(=O)O)C(=O)N[C@@H](Cc1c[nH]c2ccccc12)C(=O)N[C@@H](CC(C)C)C(=O)N[C@@H](CCCCN)C(=O)N[C@@H](CC(N)=O)C(=O)NCC(=O)N[C@@H](CCCNC(=N)N)C(N)=O)[C@@H](C)CC)C(C)C` [compound 86] (H-HKDGTFTSDLSKQ[Nle]EEEAVRLFIEWLKNGR-NH2) here?
**A.** 2.05 ng peptide/min/mg BBM

**Q.** How did the “Δ[Ca^2+]cyt ± SD (n = 4)” value [1] turn out when “GLP-1-(7-36)-NH2 [GLP1-(7-36)-NH2, reference compound]” was run?
**A.** 65 ± 10 nM

**Q.** And the “Insulin release from isolated islets after 1 hour” value (shortened to “Insulin release”) ([4]; peptide 10^−7, 10 mM glucose)?
**A.** 53.52 mIU/h/10 Islets

**Q.** And the “Insulin release” value ([4]; peptide 10^−8, 10 mM glucose)?
**A.** 42.78 mIU/h/10 Islets

**Q.** What about the “Insulin release” value ([4]; peptide 10^−9, 10 mM glucose) of the same compound?
**A.** 29.99 mIU/h/10 Islets

**Q.** How did the “Δ[Ca^2+]cyt ± SD (n = 4)” value [1] turn out when “[Ala^21, Arg^30]-exendin-4-(1-30)-NH2 [Seq. ID 8]” was run?
**A.** 64 ± 8 nM

**Q.** Which results are given for “[H^2 Nle^14R^30]-Ex-3-(1-30)—NH2 (HHDGTFTSDLSKQ[Nle]EEEAVRLFIEWLKNGR-NH2; N-terminus assumed; SMILES CCCC[C@H](NC(=O)[C@H](CCC(N)=O)NC(=O)[C@H](CCCCN)NC(=O)[C@H](CO)NC(=O)[C@H](CC(C)C)NC(=O)[C@H](CC(=O)O)NC(=O)[C@H](CO)NC(=O)[C@@H](NC(=O)[C@H](Cc1ccccc1)NC(=O)[C@@H](NC(=O)CNC(=O)[C@H](CC(=O)O)NC(=O)[C@H](Cc1c[nH]cn1)NC(=O)[C@@H](N)Cc1c[nH]cn1)[C@@H](C)O)[C@@H](C)O)C(=O)N[C@@H](CCC(=O)O)C(=O)N[C@@H](CCC(=O)O)C(=O)N[C@@H](CCC(=O)O)C(=O)N[C@@H](C)C(=O)N[C@H](C(=O)N[C@@H](CCCNC(=N)N)C(=O)N[C@@H](CC(C)C)C(=O)N[C@@H](Cc1ccccc1)C(=O)N[C@H](C(=O)N[C@@H](CCC(=O)O)C(=O)N[C@@H](Cc1c[nH]c2ccccc12)C(=O)N[C@@H](CC(C)C)C(=O)N[C@@H](CCCCN)C(=O)N[C@@H](CC(N)=O)C(=O)NCC(=O)N[C@@H](CCCNC(=N)N)C(N)=O)[C@@H](C)CC)C(C)C) [Seq. ID 84]”?
**A.** Insulin release from isolated islets after 1 hour ([4]; peptide 10^−7, 10 mM glucose): 48.94 mIU/h/10 Islets; Insulin release from isolated islets after 1 hour ([4]; peptide 10^−8, 10 mM glucose): 41.72 mIU/h/10 Islets; Insulin release from isolated islets after 1 hour ([4]; peptide 10^−9, 10 mM glucose): 38.76 mIU/h/10 Islets; Insulin release from isolated islets after 1 hour ([4]; peptide 10^−10, 10 mM glucose): 35.05 mIU/h/10 Islets

**Q.** How did the “Δ[Ca^2+]cyt ± SD (n = 4)” value [1] turn out when “[Nle^14, Arg^30]-exendin-3-(1-30)-NH2 (HSDGTFTSDLSKQ[Nle]EEEAVRLFIEWLKNGR-NH2; N-terminus assumed; SMILES CCCC[C@H](NC(=O)[C@H](CCC(N)=O)NC(=O)[C@H](CCCCN)NC(=O)[C@H](CO)NC(=O)[C@H](CC(C)C)NC(=O)[C@H](CC(=O)O)NC(=O)[C@H](CO)NC(=O)[C@@H](NC(=O)[C@H](Cc1ccccc1)NC(=O)[C@@H](NC(=O)CNC(=O)[C@H](CC(=O)O)NC(=O)[C@H](CO)NC(=O)[C@@H](N)Cc1c[nH]cn1)[C@@H](C)O)[C@@H](C)O)C(=O)N[C@@H](CCC(=O)O)C(=O)N[C@@H](CCC(=O)O)C(=O)N[C@@H](CCC(=O)O)C(=O)N[C@@H](C)C(=O)N[C@H](C(=O)N[C@@H](CCCNC(=N)N)C(=O)N[C@@H](CC(C)C)C(=O)N[C@@H](Cc1ccccc1)C(=O)N[C@H](C(=O)N[C@@H](CCC(=O)O)C(=O)N[C@@H](Cc1c[nH]c2ccccc12)C(=O)N[C@@H](CC(C)C)C(=O)N[C@@H](CCCCN)C(=O)N[C@@H](CC(N)=O)C(=O)NCC(=O)N[C@@H](CCCNC(=N)N)C(N)=O)[C@@H](C)CC)C(C)C) [Seq. ID 5]” was run?
**A.** 63 ± 8 nM
